Tested on: NCI-H929 complex spheroids, viability % test/control
Assay: Anticancer human tumor NCI-H929 cell line growth inhibition [RAS];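 also: compound exposure lasted seven days before viability was read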;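 as to viability, T/C: 100% = DMSO vehicle control viability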
Settings: for IC50: curve of first compound; for viability, T/C: stronger effect = lower value
Summary of the method: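 Multi-cell-type spheroids: tumor cells plus HUVEC endothelial cells and mesenchymal stem cells. RAS-pathway inhibitors were combined with targeted agents, each dosed in half-log steps down from clinical Cmax, or from 10 microM when Cmax was unknown.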

[1] = second compound 0.000949 µM, first compound 0.0316 µM
[2] = second compound 0.000949 µM, first compound 0.1 µM
[3] = second compound 0.000949 µM, first compound 0.316 µM
[4] = second compound 0.000949 µM, first compound 1 µM
[5] = second compound 0.000949 µM, first compound 3.16 µM
[6] = second compound 0.000949 µM, first compound 10 µM
[7] = second compound 0.003 µM, first compound 0.0316 µM
[8] = second compound 0.003 µM, first compound 0.1 µM
[9] = second compound 0.003 µM, first compound 0.316 µM
[10] = second compound 0.003 µM, first compound 1 µM
[11] = second compound 0.003 µM, first compound 3.16 µM
[12] = second compound 0.003 µM, first compound 10 µM
[13] = second compound 0.00949 µM, first compound 0.0316 µM
[14] = second compound 0.00949 µM, first compound 0.1 µM
[15] = second compound 0.00949 µM, first compound 0.316 µM
[16] = second compound 0.00949 µM, first compound 1 µM
[17] = second compound 0.00949 µM, first compound 3.16 µM
[18] = second compound 0.00949 µM, first compound 10 µM
[19] = second compound 0.03 µM, first compound 0.0316 µM
[20] = second compound 0.03 µM, first compound 0.1 µM
[21] = second compound 0.03 µM, first compound 0.316 µM
[22] = second compound 0.03 µM, first compound 1 µM
[23] = second compound 0.03 µM, first compound 3.16 µM
[24] = second compound 0.03 µM, first compound 10 µM
[25] = second compound 0.0949 µM, first compound 0.0316 µM
[26] = second compound 0.0949 µM, first compound 0.1 µM
[27] = second compound 0.0949 µM, first compound 0.316 µM
[28] = second compound 0.0949 µM, first compound 1 µM
[29] = second compound 0.0949 µM, first compound 3.16 µM
[30] = second compound 0.0949 µM, first compound 10 µM
[31] = second compound 0.3 µM, first compound 0.0316 µM
[32] = second compound 0.3 µM, first compound 0.1 µM
[33] = second compound 0.3 µM, first compound 0.316 µM
[34] = second compound 0.3 µM, first compound 1 µM
[35] = second compound 0.3 µM, first compound 3.16 µM
[36] = second compound 0.3 µM, first compound 10 µM

Structure (SMILES): Cc1nc(N2CCC3(CC2)COC(C)C3N)c(CO)nc1Sc1ccnc(N)c1Cl (stereo unspecified) + CCn1c(-c2cc(N3CCN(C)CC3)cnc2C(C)OC)c2c3cc(ccc31)-c1csc(n1)CC(NC(=O)C1CC1C)C(=O)N1CCCC(N1)C(=O)OCC(C)(C)C2
- IC50 (second compound 0.000949 µM): > 10000 nM
- IC50 (second compound 0.003 µM): > 10000 nM
- IC50 (second compound 0.00949 µM): > 10000 nM
- IC50 (second compound 0.03 µM): < 31.6 nM
- IC50 (second compound 0.0949 µM): < 31.6 nM
- IC50 (second compound 0.3 µM): < 31.6 nM
- viability, T/C [1]: 104%
- viability, T/C [2]: 96.9%
- viability, T/C [3]: 108%
- viability, T/C [4]: 105%
- viability, T/C [5]: 113%
- viability, T/C [6]: 108%
- viability, T/C [7]: 101%
- viability, T/C [8]: 102%
- viability, T/C [9]: 104%
- viability, T/C [10]: 107%
- viability, T/C [11]: 110%
- viability, T/C [12]: 107%
- viability, T/C [13]: 118%
- viability, T/C [14]: 123%
- viability, T/C [15]: 118%
- viability, T/C [16]: 124%
- viability, T/C [17]: 88.4%
- viability, T/C [18]: 119%
- viability, T/C [19]: 31.8%
- viability, T/C [20]: 25.4%
- viability, T/C [21]: 27.2%
- viability, T/C [22]: 27.8%
- viability, T/C [23]: 24.9%
- viability, T/C [24]: 19.7%
- viability, T/C [25]: 6.44%
- viability, T/C [26]: 6.29%
- viability, T/C [27]: 4.23%
- viability, T/C [28]: 5.24%
- viability, T/C [29]: 4.2%
- viability, T/C [30]: 2.67%
- viability, T/C [31]: 4.38%
- viability, T/C [32]: 3.24%
- viability, T/C [33]: 2.87%
- viability, T/C [34]: 3.05%
- viability, T/C [35]: 2.74%
- viability, T/C [36]: 1.82%

Structure (SMILES): NC1c2ccccc2OC12CCN(c1cnc3c(N4CCCc5ncccc54)n[nH]c3n1)CC2 (stereo unspecified) + CCn1c(-c2cc(N3CCN(C)CC3)cnc2C(C)OC)c2c3cc(ccc31)-c1csc(n1)CC(NC(=O)C1CC1C)C(=O)N1CCCC(N1)C(=O)OCC(C)(C)C2
- IC50 (second compound 0.000949 µM): > 10000 nM
- IC50 (second compound 0.003 µM): > 10000 nM
- IC50 (second compound 0.00949 µM): > 10000 nM
- IC50 (second compound 0.03 µM): < 31.6 nM
- IC50 (second compound 0.0949 µM): < 31.6 nM
- IC50 (second compound 0.3 µM): < 31.6 nM
- viability, T/C [1]: 107%
- viability, T/C [2]: 104%
- viability, T/C [3]: 108%
- viability, T/C [4]: 108%
- viability, T/C [5]: 113%
- viability, T/C [6]: 78.6%
- viability, T/C [7]: 107%
- viability, T/C [8]: 108%
- viability, T/C [9]: 109%
- viability, T/C [10]: 111%
- viability, T/C [11]: 109%
- viability, T/C [12]: 80.9%
- viability, T/C [13]: 121%
- viability, T/C [14]: 128%
- viability, T/C [15]: 128%
- viability, T/C [16]: 125%
- viability, T/C [17]: 121%
- viability, T/C [18]: 87.8%
- viability, T/C [19]: 15.4%
- viability, T/C [20]: 13.8%
- viability, T/C [21]: 14.9%
- viability, T/C [22]: 12.7%
- viability, T/C [23]: 18.3%
- viability, T/C [24]: 12%
- viability, T/C [25]: 3.25%
- viability, T/C [26]: 2.4%
- viability, T/C [27]: 2.09%
- viability, T/C [28]: 2.07%
- viability, T/C [29]: 1.88%
- viability, T/C [30]: 0.76%
- viability, T/C [31]: 1.75%
- viability, T/C [32]: 1.24%
- viability, T/C [33]: 0.73%
- viability, T/C [34]: 0.89%
- viability, T/C [35]: 1.51%
- viability, T/C [36]: 0.19%

Structure (SMILES): Nc1ccn(C2OC(CO)C(O)C2(F)F)c(=O)n1 (stereo unspecified) + CCn1c(-c2cc(N3CCN(C)CC3)cnc2C(C)OC)c2c3cc(ccc31)-c1csc(n1)CC(NC(=O)C1CC1C)C(=O)N1CCCC(N1)C(=O)OCC(C)(C)C2
- IC50 (second compound 0.000949 µM): 7.3 nM
- IC50 (second compound 0.003 µM): 6.69 nM
- IC50 (second compound 0.00949 µM): 6.61 nM
- IC50 (second compound 0.03 µM): < 3.16 nM
- IC50 (second compound 0.0949 µM): < 3.16 nM
- IC50 (second compound 0.3 µM): < 3.16 nM
- viability, T/C (second compound 0.000949 µM, first compound 0.00316 µM): 110%
- viability, T/C (second compound 0.000949 µM, first compound 0.01 µM): 27.6%
- viability, T/C [1]: 2.05%
- viability, T/C [2]: 2.16%
- viability, T/C [3]: 1.6%
- viability, T/C [4]: 1.6%
- viability, T/C (second compound 0.003 µM, first compound 0.00316 µM): 105%
- viability, T/C (second compound 0.003 µM, first compound 0.01 µM): 20.4%
- viability, T/C [7]: 2.07%
- viability, T/C [8]: 1.75%
- viability, T/C [9]: 1.35%
- viability, T/C [10]: 1.62%
- viability, T/C (second compound 0.00949 µM, first compound 0.00316 µM): 127%
- viability, T/C (second compound 0.00949 µM, first compound 0.01 µM): 6.62%
- viability, T/C [13]: 1.99%
- viability, T/C [14]: 2.73%
- viability, T/C [15]: 1.58%
- viability, T/C [16]: 1.35%
- viability, T/C (second compound 0.03 µM, first compound 0.00316 µM): 15.2%
- viability, T/C (second compound 0.03 µM, first compound 0.01 µM): 3.12%
- viability, T/C [19]: 1.8%
- viability, T/C [20]: 1.5%
- viability, T/C [21]: 1.42%
- viability, T/C [22]: 1.24%
- viability, T/C (second compound 0.0949 µM, first compound 0.00316 µM): 2.68%
- viability, T/C (second compound 0.0949 µM, first compound 0.01 µM): 1.67%
- viability, T/C [25]: 1.66%
- viability, T/C [26]: 1.4%
- viability, T/C [27]: 1.18%
- viability, T/C [28]: 1.05%
- viability, T/C (second compound 0.3 µM, first compound 0.00316 µM): 1.41%
- viability, T/C (second compound 0.3 µM, first compound 0.01 µM): 1.1%
- viability, T/C [31]: 1.1%
- viability, T/C [32]: 1.32%
- viability, T/C [33]: 1.02%
- viability, T/C [34]: 0.86%
